One assay has as its target T1, JAK2 JH1 WT (T842-G1132) (Homo sapiens, UniProt O60674).
T1 construct: *JAK2 JH1 WT (T842-G1132) N-His60-avi-TEV; His6 (N); TEV cleavage site (N); purchased Biortus
Description: Surface Plasmon Resonance (SPR) binding assay, JAK2 JH1 domain. As to conditions: SPR, JAK2 JH1 domain. As to the method: Selected compounds of the present disclosure were tested in a Surface Plasmon Resonance (SPR) Assay to measure their binding kinetics and affinity for proteins of interest.
Prepare buffer: 50 mM HEPES pH 7.5, 150 mM NaCl, 0.05% (v/v) Tween, and 10% (v/v) glycerol were combined and pH was adjusted to 7.5, then filtered. 5 mM DTT, was added, and buffer without DMSO was reserved for compound resuspension. 2% (v/v) DMSO was added for assay buffer, and separately 1% DMSO was used to make buffer for resuspending compounds.
Prepare compounds: Using a Bravo liquid handler, 99 μL of 1% (v/v) DMSO assay buffer was added to 1 μL compounds in DMSO.
Run 8K Method: Biotin CAPture (CAP) chip surface was regenerated prior to run by: Inserting CAP chip into Biacore 8K, prime machine with assay buffer with 2% (v/v) DMSO; Setting instrument temperature to 20° C.; Conditioning surface with NaOH/GdnHCl reagents from CAP chip kit (60 seconds, 10 μL/min); and Capturing oligo-Streptavidin (SA) reagent from CAP kit (600 seconds, 1 μL/min), expected capture ˜2500 RU. JAK2 JH1 or JH2 protein was immobilized by preparing a sample of 0.5 uM JH1 or 0.4 uM JH2 protein diluted in assay buffer without DMSO and supplemented with 10 uM of a selected compound of the invention as a stabilizer (370 seconds, 5 uL/min), expected capture ˜1000 RU. Remaining biotin sites on SA were blocked with 1 uM biotin (30 seconds, 20 uL/min), then equilibrated for 1800 seconds at 100 uL/min. Compounds being assayed were run in single cycle kinetics: 4 doses with a top concentration of 5 uM (JH1) or 500 nM (JH2), dilution factor of 3, at 20° C., for a contact time of 60 seconds, and a dissociation time of 300 seconds (JH1) or 1200 seconds (JH2), at a flow rate of 30 uL/min. The surface was completely regenerated after each compound is run, and JH1 or JH2 protein was immobilized fresh prior to each new compound. Data were fitted kinetically with 1:1 binding model using Biacore Insight Evaluation Software.

In assay [1] the target is T2, JAK2 JH2 WT (V536-D812) [W659A, W777A, F794H solubilizing mutations] (Homo sapiens, UniProt O60674, F794H/W659A/W777A).
T2 construct: **JAK2 JH2 WT (V536-D812) [W659A, W777A, F794H solubilizing mutations]; C-thrombin-avi-His6; thrombin cleavage site (C); His6 (C); purchased Biortus
The assay can be described thus: Surface Plasmon Resonance (SPR) binding assay, JAK2 JH2 domain. As to conditions: SPR, JAK2 JH2 domain. In outline: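 Kinetics came from 1:1 fits of single-cycle runs at 20 °C: four 3-fold dilutions from 5 uM for JH1 or 500 nM for JH2, 60 s association, and 300 s or 1200 s dissociation respectively. Protein was freshly captured per compound in the presence of 10 uM stabilizer compound, with running buffer of pH 7.5 HEPES/NaCl/glycerol/DTT plus 2% DMSO.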

Assay [2] concerns TF1 JAK2 V617F STAT3 reporter. Description: Cellular TF1 STAT3 assay (luciferase reporter), JAK2 V617F. In kind it is cell-based. To be noted: TF1 JAK2 V617F, read-out: Cell PD-TF1 JAK2 V617F STAT3 (IC50). The method in brief: (§1)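 Inhibition of JAK2 V617F-mediated STAT3/STAT5 signalling is measured by reporter luminescence in TF1 erythroleukemia cells treated overnight (18-20 h) with a 10-point compound series; DMSO serves as vehicle.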
Background: In a reporter assay the amount or activity of a reporter protein is the signal.

Assay [3] deals with TF1 JAK2 V617F STAT5 reporter. Description: Cellular TF1 STAT5 assay (luciferase reporter), JAK2 V617F. In kind it is cell-based. As to conditions: TF1 JAK2 V617F, read-out: Cell PD TF1 V617F STAT5 (IC50). The method in brief:
as §1

T2 sequence (O60674 536-812 W659A/W777A/F794H): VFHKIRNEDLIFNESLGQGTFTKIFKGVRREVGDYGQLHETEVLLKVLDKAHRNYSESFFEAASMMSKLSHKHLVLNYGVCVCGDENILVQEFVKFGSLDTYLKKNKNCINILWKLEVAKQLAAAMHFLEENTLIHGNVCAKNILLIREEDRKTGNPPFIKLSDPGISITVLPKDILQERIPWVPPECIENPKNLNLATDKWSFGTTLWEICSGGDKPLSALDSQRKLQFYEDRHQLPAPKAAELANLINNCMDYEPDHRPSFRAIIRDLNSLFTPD
T1 sequence (O60674 842-1132): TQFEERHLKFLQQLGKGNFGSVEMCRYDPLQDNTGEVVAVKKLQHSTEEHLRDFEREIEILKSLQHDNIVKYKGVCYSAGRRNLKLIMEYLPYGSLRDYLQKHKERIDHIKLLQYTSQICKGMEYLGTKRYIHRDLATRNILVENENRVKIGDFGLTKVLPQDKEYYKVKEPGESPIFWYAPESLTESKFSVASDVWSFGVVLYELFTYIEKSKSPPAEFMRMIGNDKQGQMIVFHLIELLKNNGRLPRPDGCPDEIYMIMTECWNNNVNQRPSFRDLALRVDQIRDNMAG

Regarding `CNC(=O)c1nnc(NC(=O)C2CC2)cc1Nc1cccc(-c2cnc(C(=O)N(C)Cc3cc(C#N)ccn3)cc2C)c1OC` [Compound 32], the results for the Kd (on JAK2 JH1 WT (T842-G1132); in assay [1]) were 5000 to 100000 nM and 0.01 to 10 nM, respectively. For the same compound, the IC50 in assay [2] and in assay [3] was 500 to 5000 nM each time.
`CNC(=O)c1nnc(NC(=O)C2CC2)cc1Nc1cccc(-c2cn(C3CN(Cc4cccc(C)n4)C3)nn2)c1OC` [Compound 151]: the Kd (commonly the constant that tells how readily two partners part at equilibrium) on JAK2 JH1 WT (T842-G1132) is 500 to 5000 nM; in assay [1], 0.01 to 10 nM. Also, the IC50 in assay [2] and in assay [3] was 50 to 500 nM throughout.
Consider `CNC(=O)c1nnc(NC(=O)C2CC2)cc1Nc1cccc(-c2cnc(C(=O)NCc3cccn(C)c3=O)nc2)c1OC` [Compound 9], for which the dissociation constant (Kd) fell in the range of 500 to 5000 nM on JAK2 JH1 WT (T842-G1132) and 0.01 to 10 nM in assay [1]. Also, the results for the IC50 in assay [2] and in assay [3] were 500 to 5000 nM and 5000 to 100000 nM, respectively.
For the compound `CNC(=O)c1nnc(NC(=O)C2CC2)cc1Nc1cccc(-c2cnc(C(=O)N(C)Cc3cccnn3)c(F)c2)c1OC` [Compound 48], the Kd on JAK2 JH1 WT (T842-G1132) was in the range of 5000 to 100000 nM; in assay [1], 0.01 to 10 nM. Further, the half-inhibitory concentration (IC50) in assay [2] and in assay [3] was 500 to 5000 nM each time.

(Values after patent US20240368122A1, “JAK2 INHIBITORS AND METHODS OF USE THEREOF” (RELAY THERAPEUTICS, INC., priority 2021, published 2024).)
